Key:
[1] = tested on: MCF-7 breast cancer cells; assay: Cell viability (MTT) assay, MCF-7; assay type: cell-based; settings: for anti-proliferation activity on MCF-7 compared with GAA: MCF-7, 48 h
Method: MCF-7 is a commonly used tumor cell line.
(§1) The cell lines present in this study were obtained from Procell Life Science & Technology Co. Ltd. MCF-7, HepG2 and SJSA-1 cells were cultured in DMEM medium (DMEM, Gibco) supplemented with 10% fetal bovine serum (FBS, Gibco), 1% penicillin-streptomycin (Hyclone) at 37℃ in a humid environment with 5% CO2. HK-2 cells were cultured in DMEM/F12 (1:1) medium and placed in incubators in the same environment.
(§2) Cell viability was determined by MTT assay. MCF-7, HepG2, SJSA-1 and HK-2 cells (6 × 10^3 cells /well) were seeded in 96-well plates with serum-free medium for 24 h. […] After 48 or 72 h, 10 μL MTT (5 mg/mL, Beyotime) was added and incubated at 37 °C for 4 h. Then 100 μL of lysate was added. After complete dissolution of the crystal, the absorbance was measured at 540 nm and expressed as the average percentage of absorbance between treated and control cells. The value for control cells was set at 100%. Cell survival rate was calculated as the ratio of the absorbance of the cells and negative control after minus the blank absorbance respectively.

[2] = tested on: HepG2 cells; assay: Cell viability (MTT) assay, HepG2; assay type: cell-based; settings: for anti-proliferation activity on HepG2 (in words): HepG2, 48 h
Method: (§3) To investigate the selectivity of these derivatives towards different tumor cell lines, we also selected HepG2 and osteosarcoma cell line SJSA-1 cells to evaluate the anti-proliferation activity of the derivatives. […] Except for compounds A2 and A11, the effects of other compounds on SJSA-1 were not strong.
as §1, §2

[3] = tested on: osteosarcoma cell line SJSA-1; assay: Cell viability (MTT) assay, SJSA-1; assay type: cell-based
Method: as §3, §1, §2

[4] = tested on: HK-2 cells; assay: Cell viability (MTT) assay, HK-2 normal cells (cytotoxicity); assay type: cell-based
Method: as §1, §2

[5] = biological target: T1, MDM2 protein (Homo sapiens, UniProt Q00987); assay: Surface plasmon resonance (SPR) binding assay
T1 construct: purchased Protintech (so in the source)
T1 sequence (Q00987 whole entry): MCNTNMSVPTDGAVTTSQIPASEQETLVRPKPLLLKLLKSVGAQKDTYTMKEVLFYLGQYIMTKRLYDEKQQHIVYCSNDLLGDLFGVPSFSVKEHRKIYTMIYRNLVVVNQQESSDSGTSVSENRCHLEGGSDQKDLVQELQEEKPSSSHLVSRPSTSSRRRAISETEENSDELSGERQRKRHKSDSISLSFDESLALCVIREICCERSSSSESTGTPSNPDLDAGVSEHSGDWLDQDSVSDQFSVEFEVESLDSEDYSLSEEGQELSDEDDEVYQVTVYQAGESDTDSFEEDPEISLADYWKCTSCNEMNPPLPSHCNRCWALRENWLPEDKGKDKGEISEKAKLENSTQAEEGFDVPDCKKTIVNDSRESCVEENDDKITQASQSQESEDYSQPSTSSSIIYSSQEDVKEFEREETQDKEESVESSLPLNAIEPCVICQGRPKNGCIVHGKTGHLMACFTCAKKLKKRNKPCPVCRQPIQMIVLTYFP
Method: In order to speculate whether A2 effects the p53-MDM2 pathway by binding with MDM2 to inhibit the interaction between MDM2 and p53, we carried out in silico and in vitro binding experiments. […] We used the S-value to evaluate the binding degree of the compound and MDM2 in the molecular docking experiments. The higher the absolute value of this number, the stronger the binding force.
MDM2 protein (5 mg/mL, Protintech) was immobilized on a PCH sensor chip (Octet) and preactivated with EDC/NHS mixture for 420 s at a flow rate of 10 μL/min. A2 was diluted to 100, 50, 25, 12.5, 6.25, 3.13, 0 μM with PBST buffer containing 1% DMSO. The binding time was 600 s, and the flow rate was 20 μL/min. The dissociation time was 180 s, and the affinity constant KD value was obtained by computer fitting and steady-state analysis.

[6] = tested on: SJSA-1 cells; assay: Flow cytometry apoptosis, Annexin V-FITC/PI staining; assay type: cell-based; settings: 24 h
Method: Cells were stained with Annexin V-FITC and propidium iodide.
To determine the apoptosis rate, an Annexin V-FITC/PI double staining apoptosis assay kit (Beyotime) was used to detect apoptotic cells by flow cytometry (BD FACSALOBUR), according to the manufacturer’s instructions. Briefly, SJSA-1 cells were treated with 0.1% DMSO, 12.5, 25, and 50 μM of A2 for 24 h. After harvesting, the cells were incubated with 5 μL Annexin V-FITC for 15 min and 10 μL PI for 5 min at 4 °C under dark conditions. Flow cytometry was then performed to analyze the apoptosis rate. Data were analyzed by using BD FACSDiva 8.0.1.

[7] = tested on: MDM2, p53 protein and Bcl-2/Bax in MCF-7 cells; assay: Western blot protein expression, MCF-7; assay type: cell-based; settings: MCF-7, 24 h
Excerpt: (§4) In the introduction section, we introduced that the concept that the MDM2-p53 pathway can induce cell apoptosis by up-regulating the expression of p53 protein to inhibit the proliferation of tumor cells, and by blocking the interaction of MDM2 and p53, the activation of p53 results in transcription of MDM2 mRNA, leading to robust MDM2 protein accumulation. In order to verify the effect of A2 on this pathway, we examined the effect of A2 on the protein level of MDM2, p53 protein and Bcl-2/Bax related to apoptosis, as shown in Figure 5. […] The level of Bcl-2/Bax decreased which was consistent with the apoptosis of MCF-7 cells induced by A2. We also investigated the effect of A2 on the SJSA-1 cell line which overexpresses MDM2.
(§5) For Western blot analysis, MCF-7 and SJSA-1 cells were treated with different concentrations of A2 for 24 h. The total cell protein was extracted, and proteins were isolated using 10% SDS-PAGE gel system. The proteins on the gel were transferred to PVDF membrane, blocked in 5% BSA at room temperature for 2 h, incubated in primary antibody dilution at 4 °C overnight, and washed with TBST for 3 times, 10 min each. Then, they were transferred to dilute release solution of secondary antibody and incubated at room temperature for 2 h. ECL chemiluminescence development solution (Beyotime, BeyoECL star) was added uniformly and detected on gel imaging system (Clinx ChemiScope, China). Antibodies for blotting were MDM2 (abcam, ab16895), P53 (Proteintech, 10442-1-AP), Bcl-2 (CST, 15071S), Bax (CST, 2772T) and β-actin (abcam, ab8226).

[8] = tested on: MDM2 and p53 protein in SJSA-1 cell line; assay: Western blot protein expression, SJSA-1; assay type: cell-based; settings: SJSA-1, 24 h, 12.5, 25 and 50 µM
Excerpt: as §4
as §5, with “Then, they were transferred to dilute release solution of secondary antibody and incubated at room temperature for 2 h.” left out, “Antibodies for blotting were MDM2 (abcam, ab16895), P53 (Proteintech, 10442-1-AP), Bcl-2 (CST, 15071S), Bax (CST, 2772T) and β-actin (abcam, ab8226).” left out

[9] = biological target: T1, MDM2 protein; design: method as in PMID 22380771; settings: virtual screening prediction; read-out: Ki (predicted affinity with MDM2 protein); cited from earlier work

| SMILES | anti-proliferation activity on MCF-7 compared with GAA [1] | anti-proliferation activity on HepG2 (in words) [2] | melting point [°C] | Viability of Cells (% of Control) ([1]; 25 µM) | Viability of Cells (% of Control) ([1]; 50 µM) | Viability of Cells (% of Control) ([1]; 100 µM) | Viability of Cells (% of Control) ([2]; 25 µM) | Viability of Cells (% of Control) ([2]; 50 µM) | Viability of Cells (% of Control) ([3]; 50 µM) | Viability of Cells (% of Control) ([3]; 100 µM) | Viability of Cells (% of Control) ([4]; 50 µM) | Viability of Cells (% of Control) ([4]; 100 µM) | toxicity to HK2 cells (in words) [4] | other results |
| --- | --- | --- | --- | --- | --- | --- | --- | --- | --- | --- | --- | --- | --- | --- |
| CCCCCCNC(=O)[C@H](C)CC(=O)C[C@@H](C)[C@H]1C[C@H](O)[C@@]2(C)C3=C(C(=O)C[C@]12C)[C@@]1(C)CCC(=O)C(C)(C)[C@@H]1C[C@@H]3O [Compound A2, (n-hexyl)-(7β,15α,25R)-7,15-Dihydroxy-3,11,23-Trioxolanost-8-en-26-oic Amide] | significant anti-proliferation activities | potent anti-proliferation activity | 129.9 to 131.3 |  |  |  |  |  |  |  |  |  |  | Viability of Cells (% of Control) ([1]; MCF-7, 25 µM, 48 h, MTT): 66.76 ± 6.2 % of Control; Viability of Cells (% of Control) ([1]; MCF-7, 50 µM, 48 h, MTT): 59.4 ± 4.7 % of Control; Viability of Cells (% of Control) ([1]; MCF-7, 100 µM, 48 h, MTT): 50.37 ± 1.7 % of Control; Viability of Cells (% of Control) ([2]; HepG2, 25 µM, 48 h, MTT): 78.8 ± 1.7 % of Control; Viability of Cells (% of Control) ([2]; HepG2, 50 µM, 48 h, MTT): 48.4 ± 2.1 % of Control; Viability of Cells (% of Control) ([3]; SJSA-1, 50 µM, 72 h, MTT): 51.4 ± 1.7 % of Control; Viability of Cells (% of Control) ([3]; SJSA-1, 100 µM, 72 h, MTT): 28.5 ± 3.4 % of Control; anti-proliferation activity on SJSA-1 (in words) ([3]; SJSA-1, 72 h): potent inhibition; Viability of Cells (% of Control) ([4]; HK-2 normal cells, 50 µM, 48 h, MTT): 97.1 ± 4.1 % of Control; Viability of Cells (% of Control) ([4]; HK-2 normal cells, 100 µM, 48 h, MTT): 90.9 ± 3.0 % of Control; Kd ([5]; immobilized MDM2, steady-state analysis): 1.68 µM; Kd ([5]; printed in Figure 7): 1.648 ± 0.007 µM; proportion of early phase apoptosis cells (Q3) ([6]; SJSA-1, 12.5 µM): 11.6%; proportion of early phase apoptosis cells (Q3) ([6]; SJSA-1, 25 µM): 12.3%; proportion of early phase apoptosis cells (Q3) ([6]; SJSA-1, 50 µM): 18.7%; level of Bcl-2/Bax [7]: decreased; MDM2 protein level ([7]; 50 µM): increasing trend; p53 protein level ([7]; 50 µM): increasing trend; expression of MDM2 [8]: increased in a dose-dependent manner; expression of p53 protein [8]: increased in a dose-dependent manner |
| CC(=O)O[C@@H]1C(=O)C2=C(C(=O)C[C@H]3C(C)(C)C(=O)CC[C@]23C)[C@]2(C)C(=O)C[C@H]([C@H](C)CC(=O)CC(C)C(=O)O)[C@@]12C (stereo partly drawn) [ganoderic acid F] |  |  |  |  |  |  |  |  |  |  |  |  |  | Ki [9]: 0.212 µM |
| C[C@H](CC(=O)C[C@@H](C)[C@H]1C[C@H](O)[C@@]2(C)C3=C(C(=O)C[C@]12C)[C@@]1(C)CCC(=O)C(C)(C)[C@@H]1C[C@@H]3O)C(=O)N1CCN(c2ccccc2)CC1 [Compound A15, (4-Phenylpiperazin-1-yl)-(7β,15α,25R)-7,15-Dihydroxy-3,11,23-Trioxolanost-8-en-26-oic Amide] | significant anti-proliferation activities | weaker anti-proliferation effect | 229.4 to 229.9 | 74.3 ± 5.2 % of Control | 70.4 ± 1.5 % of Control | 66.5 ± 1.4 % of Control | 77.1 ± 2.1 % of Control | 99.3 ± 0.2 % of Control | 75.9 ± 0.9 % of Control | 83.5 ± 0.8 % of Control | 123.3 ± 5.5 % of Control | 111.0 ± 8.7 % of Control |  |  |
| C[C@H](CC(=O)C[C@@H](C)[C@H]1C[C@H](O)[C@@]2(C)C3=C(C(=O)C[C@]12C)[C@@]1(C)CCC(=O)C(C)(C)[C@@H]1C[C@@H]3O)C(=O)NC1Cc2ccccc2C1 [Compound A9, (2,3-Dihydro-1H-inden-2-yl)-(7β,15α,25R)-7,15-Dihydroxy-3,11,23-Trioxolanost-8-en-26-oic Amide] | significant anti-proliferation activities | potent anti-proliferation activity | 199.7 to 200.3 | 87.5 ± 7.6 % of Control | 53.3 ± 6.9 % of Control | 40.3 ± 7.8 % of Control | 64.2 ± 1.4 % of Control | 52.4 ± 2.1 % of Control | 99.2 ± 2.6 % of Control | 89.6 ± 3.8 % of Control | 79.0 ± 2.9 % of Control | 80.1 ± 2.8 % of Control | some toxicity |  |
| C[C@H](CC(=O)C[C@@H](C)[C@H]1C[C@H](O)[C@@]2(C)C3=C(C(=O)C[C@]12C)[C@@]1(C)CCC(=O)C(C)(C)[C@@H]1C[C@@H]3O)C(=O)NCc1ccc(F)cc1 [Compound A6, (4-Fluorobenzyl)-(7β,15α,25R)-7,15-Dihydroxy-3,11,23-Trioxolanost-8-en-26-oic Amide] | significant anti-proliferation activities | weaker anti-proliferation effect | 178.4 to 179.3 | 77.1 ± 4.2 % of Control |  | 26.4 ± 1.5 % of Control | 84.0 ± 0.8 % of Control | 76.6 ± 1.6 % of Control | 92.6 ± 3.1 % of Control | 65.8 ± 3.2 % of Control | 89.6 ± 6.9 % of Control | 80.2 ± 9.0 % of Control | some toxicity | inhibition at 50 µM ([1]; Homo sapiens, MCF7, MCF-7, 50 µM, 48 h, read-out: inhibition rate of MCF-7): 63.6% |
| Cc1ccc(CCNC(=O)[C@H](C)CC(=O)C[C@@H](C)[C@H]2C[C@H](O)[C@@]3(C)C4=C(C(=O)C[C@]23C)[C@@]2(C)CCC(=O)C(C)(C)[C@@H]2C[C@@H]4O)cc1 [Compound A10, (4-Methylphenethyl)-(7β,15α,25R)-7,15-Dihydroxy-3,11,23-Trioxolanost-8-en-26-oic Amide] |  |  | 221.9 to 223 | 120.8 ± 4.8 % of Control | 118.3 ± 6.0 % of Control | 104.1 ± 2.2 % of Control | 57.9 ± 0.5 % of Control | 58.8 ± 1.4 % of Control | 80.0 ± 2.7 % of Control | 75.6 ± 4.8 % of Control | 110.9 ± 9.6 % of Control | 91.1 ± 5.5 % of Control |  |  |

From PMC10004777 (Molecules, 2023)
